From patent US12384758B2, “Crystalline form of LNP023” (Novartis AG, priority 2020, dated 2025)

Experiment: Dynamic vapor sorption (DVS) isotherms, 0 to 95% relative humidity
Format: physicochemical
Conditions: 25±1.0° C.
Method: Dynamic vapor sorption isotherms were recorded with a DVS Advantage instrument. The measurement cycle was started at ambient relative humidity (RH) of 40%. RH was then decreased to 0% in 10% steps. […] 5% steps. Finally, RH was increased to ambient relative humidity of 40% in 10% steps. The time per step was set to a minimum of 3 hours and a maximum of 6 hours. If an equilibrium condition with a constant mass change of 0.002%/min for a minimum of 5 min was reached before the maximum time for all examined samples the sequential humidity step was applied before the maximum time of 6 hours. If no equilibrium was achieved the consecutive humidity step was applied after the maximum time of 6 hours. The temperature was 25±1.0° C.
Therefore, Form HB of LNP023 hydrochloride described herein can be assigned as being non-hygroscopic.

CCO[C@H]1CCN(Cc2c(OC)cc(C)c3[nH]ccc23)[C@H](c2ccc(C(=O)O)cc2)C1.Cl [Form HB of LNP023 hydrochloride, 4-((2S,4S)-(4-ethoxy-1-((5-methoxy-7-methyl-1H-indol-4-yl)methyl)piperidin-2-yl))benzoic acid hydrochloride]
hysteresis between the sorption and desorption curve (DVS sorption 0% to 95% RH, desorption 95 to 0% RH): no significant hysteresis
mass difference between 40 and 95% RH (DVS equilibrium mass change) (DVS, reference weight at 0% RH): less than 0.2 weight %
PXRD after the DVS experiment (physical stability of the form) (after DVS cycle 0 to 95% RH): remains unchanged
hygroscopicity assignment (from DVS, non-hygroscopic defined in b47 as mass increase of less than 0.2% at 80% RH at 25° C.): non-hygroscopic
